ChEMBL document CHEMBL4819130 (Bioorg Med Chem, 2021)
pIC50: −log10 of the molar value. Activity calls are given as the source filed them. The calls are words filed in the database; no cut-off is given here.

Experiments:
HepG2 = assay: Cytotoxicity against human HepG2 cells assessed as reduction in cell viability at <40 uM after 48 hrs by CCK8 assay; type: cell-based; settings: hepg2, 48 h
3T3-L1 [1] = assay: Inhibition of adipogenesis in mouse 3T3-L1 cells assessed as reduction in lipid droplet formation at 10 uM incubated with compound for 72 hrs in presence of adipogenesis-inducing agent followed by culturing in normal medium in presence of compound for 48 hrs by Oil red O staining based analysis; type: functional, cell-based; settings: time 120.0 hrs
3T3-L1 [2] = assay: Inhibition of adipogenesis in mouse 3T3-L1 cells assessed as reduction in lipid droplet formation at 40 uM incubated with compound for 72 hrs in presence of adipogenesis-inducing agent followed by culturing in normal medium in presence of compound for 48 hrs by Oil red O staining based analysis; type: functional, cell-based; settings: time 120.0 hrs
Caco-2 = assay: Cytotoxicity against human Caco-2 cells assessed as reduction in cell viability at <40 uM after 48 hrs by CCK8 assay; type: cell-based; settings: caco-2, 48 h
3T3-L1 [3] = assay: Cytotoxicity against mouse 3T3-L1 cells assessed as reduction in cell viability at <40 uM after 48 hrs by CCK8 assay; type: cell-based; settings: 3t3-l1, 48 h
Cocaine esterase = target: T1, Cocaine esterase (Homo sapiens, UniProt O00748); assay: Inhibition of CES2 in human liver microsomes assessed as reduction in substrate hydrolysis using fluorescein diacetate as substrate preincubated for 3 mins followed by substrate addition and measured after 20 mins by fluorescence analysis
T1 sequence (O00748 whole entry): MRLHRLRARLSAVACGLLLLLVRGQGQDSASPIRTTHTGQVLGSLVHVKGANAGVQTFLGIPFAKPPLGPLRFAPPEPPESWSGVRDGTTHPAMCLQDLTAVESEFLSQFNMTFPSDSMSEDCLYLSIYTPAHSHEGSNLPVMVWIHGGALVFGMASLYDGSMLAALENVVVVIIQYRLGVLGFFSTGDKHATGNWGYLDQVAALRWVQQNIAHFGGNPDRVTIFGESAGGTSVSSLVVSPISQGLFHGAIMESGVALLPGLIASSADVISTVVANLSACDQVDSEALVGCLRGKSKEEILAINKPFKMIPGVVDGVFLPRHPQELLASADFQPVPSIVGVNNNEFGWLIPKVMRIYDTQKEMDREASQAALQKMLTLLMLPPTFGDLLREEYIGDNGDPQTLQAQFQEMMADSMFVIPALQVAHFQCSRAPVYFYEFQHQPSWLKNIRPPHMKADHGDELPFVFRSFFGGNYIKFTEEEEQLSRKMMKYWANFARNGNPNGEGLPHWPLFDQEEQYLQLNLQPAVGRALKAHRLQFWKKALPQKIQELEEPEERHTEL

Row | Structure (SMILES) | pIC50 (Cocaine esterase) | also measured
1 | Cc1ccc(CC2C(=O)N(C3CCCCC3)N=C2c2ccc(C)cc2)cc1 (stereo unspecified) |  | Activity (HepG2): Non-Toxic; inhibition (3T3-L1 [1]): Active; inhibition (3T3-L1 [2]): Active; Activity (Caco-2): Non-Toxic; Activity (3T3-L1 [3]): Non-Toxic
2 | O=C1C(Cc2ccccc2)C(c2ccc(Br)cc2)=NN1c1ccccc1 (stereo unspecified) | 5.21 | 
3 | COc1ccc(CC2C(=O)N(c3ccccc3)N=C2c2ccccc2)cc1 (stereo unspecified) | 5.18 | 
4 | O=C1C(Cc2ccccc2)C(c2ccccc2)=NN1C1CCCCC1 (stereo unspecified) | 5.04 | 
5 | C=CCC1C(=O)N(c2ccccc2)N=C1c1ccccc1 (stereo unspecified) | 5.11 | 
6 | Cc1ccc(C2=NN(c3ccccc3)C(=O)C2Cc2ccccc2)cc1 (stereo unspecified) | 5.42 | 
7 | O=C1C(Cc2ccc(Br)cc2)C(c2ccccc2)=NN1c1ccccc1 (stereo unspecified) | 5.08 | 
8 | CCC1C(=O)N(c2ccccc2)N=C1c1ccccc1 (stereo unspecified) | 5.04 | 
9 | CCCCCCCC/C=C\CCCCCCCC(=O)OCC(O)COP(=O)(O)O (stereo unspecified) | 5.80 | 
10 | Cc1ccc(CC2C(=O)N(c3ccccc3)N=C2c2ccccc2)cc1 (stereo unspecified) | 5.29 | 
11 | O=C1C(Cc2ccccc2[N+](=O)[O-])C(c2ccccc2)=NN1c1ccccc1 (stereo unspecified) | 4.96 | 
12 | Cc1cccc(CC2C(=O)N(c3ccccc3)N=C2c2ccccc2)c1 (stereo unspecified) | 5.15 | 
